# Reference: patent publication US9133207B2, “Tetrandrine derivatives with substituted 5-carbon, preparation method and use thereof” (Hangzhou Bensheng Pharmaceutical Co., Ltd., priority 2011, dated 2015)
# Tests used:
# [1] = tested on: H9 (acute lymphoblastic leukemia, ALL); assay: Leukemia cell growth inhibition, MTT, 72 h (Example 5); format: cell-based, human; conditions: Homo sapiens; 72 h, MTT
# In short: (§1)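 Viability read by MTT after 72 h of compound treatment at 37 °C under 5% CO2; each well seeded with 6000 cells in 1640 medium plus 10% fetal bovine serum, compounds at several concentrations.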
# [2] = tested on: Jurkat (acute lymphoblastic leukemia, ALL); assay: as above; format: cell-based, human; conditions: for IC50 / IC90: Homo sapiens, Jurkat, 72 h, MTT
# In short: as §1
# [3] = tested on: K562/adr (drug-resistant, chronic myeloid leukemia, CML); assay: as above; format: cell-based, human; conditions: Homo sapiens, K562/Adr; 72 h, MTT
# In short: as §1
# [4] = tested on: Kasumi-1 (acute myeloid leukemia M2 type, AML-M2); assay: as above; format: cell-based, human; conditions: Homo sapiens, Kasumi 1
# In short: as §1
# [5] = tested on: NB4 (acute promyelocytic leukemia, AML); assay: as above; format: cell-based, human; conditions: Homo sapiens; 72 h, MTT
# In short: as §1
# [6] = tested on: RPMI8226 (multiple myeloma); assay: Multiple myeloma cell growth inhibition, MTT, 72 h (Example 6); format: cell-based, human; conditions: Homo sapiens, RPMI-8226; 72 h, MTT, RPMI8226
# In short: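 Viability was read by MTT after 72 h of compound exposure at 37 °C, 5% CO2. Each well held 6000 RPMI8226 cells in 1640 medium containing 10% fetal bovine serum, with derivatives added at various concentrations.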
# [7] = tested on: CaES-17 (esophageal cancer cell); assay: Solid tumor cell growth inhibition, MTT, 72 h (Example 7); format: cell-based, human; conditions: Homo sapiens, CaEs17; 72 h, MTT, CAES-17
# In short: (§2)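 Each line is plated at 4000 cells per well in high-glucose DMEM supplemented with 10% FBS. After 24 h settling, derivatives at several concentrations are mixed in and cultured 72 h; MTT then gives viable cells, with untreated wells set to 100%.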
# [8] = tested on: Hep-2 (laryngeal carcinoma); assay: as above; format: cell-based, human; conditions: Homo sapiens; 72 h, MTT, Hep 2
# In short: as §2
# [9] = tested on: MG63 (osteosarcoma); assay: as above; format: cell-based, human; conditions: Homo sapiens; 72 h, MTT, MG-63
# In short: as §2
# [10] = tested on: PANC-1 (pancreatic cancer); assay: as above; format: cell-based, human; conditions: Homo sapiens; 72 h, MTT, PANC-1
# In short: as §2
# [11] = tested on: PC-3 (prostate cancer); assay: as above; format: cell-based, human; conditions: Homo sapiens; 72 h, MTT, PC-3
# In short: as §2
# [12] = tested on: A549 (human lung cancer); assay: as above; format: cell-based; conditions: Homo sapiens; 72 h, MTT, A549
# In short: as §2
# [13] = tested on: Becap37 (human breast cancer cell); assay: as above; format: cell-based; conditions: Homo sapiens; 72 h, MTT, Becap-37
# In short: as §2
# [14] = tested on: CNE (nasopharyngeal carcinoma cell); assay: as above; format: cell-based; conditions: Homo sapiens
# In short: as §2
# [15] = tested on: Hela (human cervical cancer cell); assay: as above; format: cell-based; conditions: Homo sapiens; 72 h, MTT, Hela
# In short: as §2
# [16] = tested on: Huh7 (human liver cancer cell); assay: as above; format: cell-based; conditions: Homo sapiens; 72 h, MTT, Huh-7
# In short: as §2
# [17] = tested on: MGC 803 (human gastric cancer cell); assay: as above; format: cell-based; conditions: Homo sapiens
# In short: as §2
# [18] = tested on: RKO (human colon adenocarcinoma cell); assay: as above; format: cell-based; conditions: Homo sapiens; 72 h, MTT, RKO
# In short: as §2
# [19] = tested on: SK-OV-3 (ovarian cancer cell); assay: as above; format: cell-based; conditions: Homo sapiens
# In short: as §2
# [20] = tested on: U87 MG (malignant glioma cell); assay: as above; format: cell-based; conditions: Homo sapiens, U-87 MG
# In short: as §2
structure (smiles),measurement,setting,value
COc1ccc2cc1Oc1ccc(cc1)C[C@H]1c3cc(c(OC)cc3CCN1C)Oc1c(OC)c(OC)c(CNCc3ccco3)c3c1[C@H](C2)N(C)CC3 [BS-TE-350],IC50,[1],1.11 µg/mL
same,IC90,[1],1.92 µg/mL
same,IC50,[2],0.59 µg/mL
same,IC90,[2],2.97 µg/mL
same,anti-Jurkat activity increase over tetrandrine,[2]; compared with tetrandrine,~4 fold
same,IC50,[3],0.33 µg/mL
same,IC90,[3],1.6 µg/mL
same,IC50,[4],0.54 µg/mL
same,IC90,[4],2.52 µg/mL
same,IC50,[5],0.3 µg/mL
same,IC90,[5],1 µg/mL
same,IC50,[6],0.05 µg/mL
same,IC90,[6],1.51 µg/mL
same,IC50,[7],1.03 µg/mL
same,IC90,[7],5.13 µg/mL
same,IC50,[8],1.51 µg/mL
same,IC90,[8],4.67 µg/mL
same,IC50,[9],0.8 µg/mL
same,IC90,[9],1.6 µg/mL
same,IC50,[10],1.83 µg/mL
same,IC90,[10],6.04 µg/mL
same,IC50,[11],1.87 µg/mL
same,IC90,[11],2.83 µg/mL
same,IC50,[12],3 µg/mL
same,IC90,[12],11 µg/mL
same,IC50,[13],0.9 µg/mL
same,IC90,[13],3.6 µg/mL
same,IC50,[14],1.3 µg/mL
same,IC90,[14],3.3 µg/mL
same,IC50,[15],0.95 µg/mL
same,IC90,[15],2.5 µg/mL
same,IC50,[16],1.82 µg/mL
same,IC90,[16],2.43 µg/mL
same,IC50,[17],0.89 µg/mL
same,IC90,[17],4.11 µg/mL
same,IC50,[18],0.45 µg/mL
same,IC90,[18],0.92 µg/mL
same,IC50,[19],1.8 µg/mL
same,IC90,[19],12.9 µg/mL
same,IC50,[20],0.3 µg/mL
same,IC90,[20],1.13 µg/mL
COc1ccc2cc1Oc1ccc(cc1)C[C@H]1c3cc(c(OC)cc3CCN1C)Oc1c(OC)c(OC)c(CN3CCCC(CO)C3)c3c1[C@H](C2)N(C)CC3 (stereo partly drawn) [BS-TE-351],IC50,[1],0.72 µg/mL
same,IC90,[1],1.58 µg/mL
same,IC50,[2],1 µg/mL
same,IC90,[2],5.02 µg/mL
same,IC50,[3],0.82 µg/mL
same,IC90,[3],3.11 µg/mL
same,IC50,[4],0.76 µg/mL
same,IC90,[4],3.59 µg/mL
same,IC50,[5],0.7 µg/mL
same,IC90,[5],1.9 µg/mL
same,IC50,[6],0.09 µg/mL
same,IC90,[6],2.43 µg/mL
same,IC50,[7],1.38 µg/mL
same,IC90,[7],8.19 µg/mL
same,IC50,[8],3.07 µg/mL
same,IC90,[8],8.13 µg/mL
same,IC50,[9],1.2 µg/mL
same,IC90,[9],2 µg/mL
same,IC50,[10],1.87 µg/mL
same,IC90,[10],7.79 µg/mL
same,IC50,[11],1.82 µg/mL
same,IC90,[11],3.32 µg/mL
same,IC50,[12],3.9 µg/mL
same,IC90,[12],16 µg/mL
same,IC50,[13],1.08 µg/mL
same,IC90,[13],4.5 µg/mL
same,IC50,[14],1.32 µg/mL
same,IC90,[14],3.84 µg/mL
same,IC50,[15],1.25 µg/mL
same,IC90,[15],3.61 µg/mL
same,IC50,[16],1.3 µg/mL
same,IC90,[16],2.41 µg/mL
same,IC50,[17],1.49 µg/mL
same,IC90,[17],7.42 µg/mL
same,IC50,[18],0.45 µg/mL
same,IC90,[18],1.25 µg/mL
same,IC50,[19],3.5 µg/mL
same,IC90,[19],> 16 µg/mL
same,IC50,[20],0.28 µg/mL
same,IC90,[20],0.67 µg/mL
